Assay [1] has as its system Yellowfever Mosquito (Aedes aegyptii). The assay is described as follows: Activity via glass contact (treated glass vials). As to conditions: read-out: mortality against yellowfever mosquito. Format: in vivo. The text has this: B.7. Activity Against Argentine Ant (Linepithema humile), Harvester Ant (Pogonomyrmex californicus), Acrobat Ant (Crematogaster spp.), Carpenter Ant (Camponotus floridanus), Fire Ant (Solenopsis invicta), House Fly (Musca domestica), Stable Fly (Stomoxys calcitrans), Flesh Fly (Sarcophaga sp.), Yellowfever Mosquito (Aedes aegyptii), House Mosquito (Culex quinquefasciatus), Malaria Mosquito (Anopheles albimanus), German Cockroach (Blattella Germanica), Cat Flea (Ctenocephalides felis), and Brown Dog Tick (Rhipicephalus sanguineus) Via Glass Contact
Glass vials were treated with 0.5 ml of a solution of active ingredient in acetone and allowed to dry. Insects or ticks were placed into each vial together with some food and moisture supply.

In assay [2] the test system is Bird Cherry-Oat Aphid (Rhopalosiphum padi). Briefly: Activity against bird cherry-oat aphid (sprayed barley leaf disks). As to conditions: foliar, 120 h. Format: in vivo. The procedure:
B.6. Activity Against Bird Cherry-Oat Aphid Aphid (Rhopalosiphum padi)
The active compounds were formulated in 1:3 DMSO:water. Barley leaf disks were placed into microtiterplates filled with 0.8% agar-agar and 2.5 ppm OPUS™. The leaf disks were sprayed with 2.5 μl of the test solution and 5 to 8 adult aphids were placed into the microtiterplates which were then closed and kept at 19-22° C. and 35-45% under fluorescent light for 5 days. Mortality was assessed on the basis of vital, reproduced aphids. Tests were replicated 2 times.

Bounds are passed on as bounds.

For one molecule, mortality results are on record in patent US20090136551A1, “Substituted Dicyanoalkanes For Combating Animal Pests” (BASF AKTIENGESELLSCHAFT, priority 2005, published 2009).

A word on the mortality: it is the share of the test organisms that died.

For the molecule `N#CC(C#N)(CCC(F)(F)F)Cc1cccc2nsnc12` [I.1, 2-benzo[1,2,5]thiadiazol-4-ylmethyl-2-(3,3,3-trifluoropropyl)-malononitrile], the mortality at 10 ppm in assay [1] was over 75%. In assay [2], the mortality at 300 ppm was over 90%.
